Measured values from patent US20260191809A1, “Pharmaceutical Compositions Of D10-Docosahexaenoic Acid Or Esters Thereof” (BioJiva LLC, priority 2022, published 2026).

How the values were obtained:
[1] = mouse, in vivo
Source text: Mature adult C57BL/6J mice were fed for 77 days with a customized rodent diet containing 0.5% w/w D-DHA and no natural DHA. The animals were sacrificed, and plasma, red blood cells and retinal tissues were dissected at study Days 8, 19, 38, 77, (six animals per time point, 3 males+3 females). Active D-DHA+DHA were extracted from samples and derivatized into methyl esters with a mixture of heptane/toluene (63:37 by volume), and methanol/dimethoxypropane/sulfuric acid (85:11:4 by volume) by gentle shaking at 80° C. for 2 hours, followed by separation and drying down of the organic phase under nitrogen. D-DHA+DHA methyl esters were structurally identified and quantified by gas chromatography coupled with a tandem mass spectrometry detector and D-DHA substitution levels (in percent of total DHA) were calculated.

[2] = Predicted steady-state D-DHA substitution and plasma decline without dosing in patients, modeled from the mouse data; design: species or system human
[3] = as above; design: species or system human; settings: for D-DHA substitution rate at steady-state (% of total DHA): DHA in human diet 130 mg
Source text: In contrast to controlled experimental diets, naturally occurring DHA is consumed by patients treated with D-DHA which can dilute the relative percentage of administered D-DHA absorbed with the total DHA pool and its final concentration at steady state in blood and eventually in the target tissue such as retina. The data and standard curves referred to above allow for the determination of retinal steady-state active D-DHA concentrations with reasonable accuracy by calculating the D-DHA/total DHA ratio in plasma and/or red blood cells. Table 4 exemplifies this by using a mean daily dietary intake of about 130 mg of DHA per day (which represents the 90th percentile of the mean usual DHA intake by males >51 years of age in the US.
FIGS. 3, 4, 5, and 6 illustrate how measuring plasma and red blood cell active D-DHA concentrations can be used to predict expected retinal steady-state concentrations. With a known fixed daily dose and the measured of active D-DHA substitution rate at steady-state, this also allows to approximate and monitor the mean dietary DHA intake of individual patients and permits either a timely adjustment of the daily D-DHA dose or dietary interventions to reduce natural DHA intake until the desired therapeutic active D-DHA substitution levels, preferably about 50% or more, can be reached.
In each case, the first order kinetics evidence that a dose of 250 mg dose of D-DHA will provide for a steady-state ratio of active D-DHA based on the total DHA concentration present, as set forth in Table 4. Extrapolating backwards from the case in Table 4, a dose of at least 130 mg/day of D-DHA should provide a 1:1 ratio of active D-DHA to DHA. That ratio has been shown above to be therapeutic. And a dose of 250 mg of higher should provide a ratio of 1.9:1 or higher which provides a margin for non-compliance as described herein above.
Tables 5, 6, and 7 are based on Table 2 and describe the time it takes for plasma D-DHA levels to fall below 50% or below 20% with 5 different daily doses of D-DHA in (i) patients in the 90th percentile of daily intake consuming up to 130 mg DHA (Table 5), (ii) those in the 95th percentile with a daily intake of up to 180 mg DHA (Table 6), and (iii) an example of a patient consuming more than one meal of oily fish per week with up to 260 mg daily DHA intake.

geographic atrophy = assay: Protection against geographic atrophy after intravitreal ferric ammonium citrate; assay type: in vivo, C57BL/6J mice
Source text: In this example, two cohorts of adult male wild-type C57BL/6J mice (Jackson Labs) were used. Both cohorts were fed identical feed containing 0.25% or 0.5% D-DHA or matching amounts of DHA as controls. After 4 weeks, the mice were given an intravitreal injection of 1 microliter of 0.5 millimolar ferric ammonium citrate diluted in 0.9% saline (test) or 1 microliter of 0.9% saline (control). Mice were then continued on their respective diets for 4 weeks after injection in order to evaluate whether D-DHA could protect against geographic atrophy which is related to AMD.

[4] = Daily D-DHA Dose 250 mg, Background DHA/Day 130 mg
[5] = Daily D-DHA Dose 250 mg, Background DHA/Day 180 mg
[6] = Daily D-DHA Dose 250 mg, Background DHA/Day 260 mg
[7] = Daily D-DHA Dose 500 mg, Background DHA/Day 130 mg
[8] = Daily D-DHA Dose 500 mg, Background DHA/Day 180 mg
[9] = Daily D-DHA Dose 500 mg, Background DHA/Day 260 mg
[10] = Daily D-DHA Dose 750 mg, Background DHA/Day 260 mg
[11] = Daily D-DHA Dose 1000 mg, Background DHA/Day 260 mg

[2H]C([2H])(/C=C\CC)/C=C\C([2H])([2H])/C=C\C([2H])([2H])/C=C\C([2H])([2H])/C=C\C([2H])([2H])/C=C\CCC(=O)O [D-DHA, D-10-docosahexaenoic acid]
accretion half-life [1]: ~210 h
time to red blood cell steady state concentration of active D-DHA after the start of therapy ([2]; red blood cell, patients): about 45 days
time to steady state concentration of active D-DHA after start of therapy ([2]; skeletal muscle tissue): about 11 weeks
ratio of D-DHA to DHA at steady state ([3]; 250 mg D-DHA per day, on average about 130 mg per day of DHA, plasma, red blood cells, liver, skeletal muscle): 1.92 to 1
Time to reach 20% in Plasma (0.2:1 D-DHA to DHA Ratio) w/o taking oral D-DHA [3, 4]: ≤ 77 days
Time to reach ≤50% in Plasma (1:1 D-DHA to DHA Ratio) w/o taking oral D-DHA [3, 4]: ≤ 22 days
Days to reach ≤50% in Plasma (1:1 D-DHA to DHA Ratio) w/o taking oral D-DHA [3, 5]: ≤ 11 days
Time to reach 20% in Plasma (0.2:1 D-DHA to DHA Ratio) w/o taking oral D-DHA [3, 5]: ≤ 66 days
Days to reach ≤50% in Plasma (1:1 D-DHA to DHA Ratio) w/o taking oral D-DHA [3, 6]: below 50%
Time to reach 20% in Plasma (0.2:1 D-DHA to DHA Ratio) w/o taking oral D-DHA [3, 6]: ≤ 29 days
Time to reach 20% in Plasma (0.2:1 D-DHA to DHA Ratio) w/o taking oral D-DHA [3, 7]: ≤ 46 days
Time to reach ≤50% in Plasma (1:1 D-DHA to DHA Ratio) w/o taking oral D-DHA [3, 7]: ≤ 6 days
Days to reach ≤50% in Plasma (1:1 D-DHA to DHA Ratio) w/o taking oral D-DHA [3, 8]: ≤ 35 days
Time to reach 20% in Plasma (0.2:1 D-DHA to DHA Ratio) w/o taking oral D-DHA [3, 8]: ≤ 90 days
Days to reach ≤50% in Plasma (1:1 D-DHA to DHA Ratio) w/o taking oral D-DHA [3, 9]: ≤ 8 days
Time to reach 20% in Plasma (0.2:1 D-DHA to DHA Ratio) w/o taking oral D-DHA [3, 9]: ≤ 63 days
Time to reach ≤50% in Plasma (1:1 D-DHA to DHA Ratio) w/o taking oral D-DHA ([3]; Daily D-DHA Dose 750 mg, Background DHA/Day 130 mg): ≤ 60 days
Days to reach ≤50% in Plasma (1:1 D-DHA to DHA Ratio) w/o taking oral D-DHA ([3]; Daily D-DHA Dose 750 mg, Background DHA/Day 180 mg): ≤ 49 days
Days to reach ≤50% in Plasma (1:1 D-DHA to DHA Ratio) w/o taking oral D-DHA [3, 10]: ≤ 26 days
Time to reach 20% in Plasma (0.2:1 D-DHA to DHA Ratio) w/o taking oral D-DHA [3, 10]: ≤ 81 days
Time to reach ≤50% in Plasma (1:1 D-DHA to DHA Ratio) w/o taking oral D-DHA ([3]; Daily D-DHA Dose 1000 mg, Background DHA/Day 130 mg): ≤ 70 days
Days to reach ≤50% in Plasma (1:1 D-DHA to DHA Ratio) w/o taking oral D-DHA ([3]; Daily D-DHA Dose 1000 mg, Background DHA/Day 180 mg): ≤ 59 days
Days to reach ≤50% in Plasma (1:1 D-DHA to DHA Ratio) w/o taking oral D-DHA [3, 11]: ≤ 38 days
Time to reach 20% in Plasma (0.2:1 D-DHA to DHA Ratio) w/o taking oral D-DHA [3, 11]: ≤ 93 days
Time to reach ≤50% in Plasma (1:1 D-DHA to DHA Ratio) w/o taking oral D-DHA ([3]; Daily D-DHA Dose 1250 mg, Background DHA/Day 130 mg): ≤ 77 days
Days to reach ≤50% in Plasma (1:1 D-DHA to DHA Ratio) w/o taking oral D-DHA ([3]; Daily D-DHA Dose 1250 mg, Background DHA/Day 180 mg): ≤ 67 days
Days to reach ≤50% in Plasma (1:1 D-DHA to DHA Ratio) w/o taking oral D-DHA ([3]; Daily D-DHA Dose 1250 mg, Background DHA/Day 260 mg): ≤ 47 days
D-DHA substitution rate at steady-state (% of total DHA) ([3]; Fixed daily D-DHA dose 250 mg): 66%
D-DHA substitution rate at steady-state (% of total DHA) ([3]; Fixed daily D-DHA dose 500 mg): 79%
D-DHA substitution rate at steady-state (% of total DHA) ([3]; Fixed daily D-DHA dose 1000 mg): 88%
time to plasma steady state concentration of active D-DHA after the start of therapy ([3]; plasma, patients): about 14 days
protection against geographic atrophy (geographic atrophy; concentration of D-DHA at least 50% of the total DHA in the retina, feed 0.25% or 0.5% D-DHA, 4 weeks after iron injection): fully protected
protection against geographic atrophy (geographic atrophy; lower concentrations of D-DHA to DHA in the retina (below 50%)): protection was achieved but at reduced rates
protection against geographic atrophy (geographic atrophy; ratios of about 1:4 of D-DHA to DHA): protection is accorded
protection against geographic atrophy (geographic atrophy; ratios of at least about 1:1 D-DHA to DHA): maximal
